Assay results as given in patent publication US10517889B2, “Modulators of SMAD7 expression” (Ionis Pharmaceuticals, Inc., priority 2017, dated 2019).
“And” between values parts separate entries of the source, which are not always exact repeats. Equal entries are not always repeated. Strand notation (5' to 3'): a small letter for the sugar, then the base; units joined by * are phosphorothioate-linked, units joined directly phosphodiester-linked; [ ] holds rarer units or linkages, { } end groups; capitals alone tell only the bases. e = 2'-O-(2-methoxyethyl) (MOE); k = constrained ethyl (cEt); [5mC] = 5-methylcytosine; d = 2'-deoxy (DNA)

How the values were obtained:
Format in all cases: cell-based
[1] = tested on: human SMAD7 mRNA; test: Antisense inhibition of human SMAD7 mRNA expression in Hep3B cells by 5-10-5 MOE gapmers, single concentration, electroporation, RT-PCR (Example 1, Study 1 and 2)
Procedure: Antisense oligonucleotides were designed to target human SMAD7 mRNA and were tested for their effects on SMAD7 mRNA expression in vitro. Cultured Hep3B cells at a density of 20,000 cells per well were transfected using electroporation with antisense oligonucleotide ION 483663 (a 5-10-5 MOE gapmer), the sequence of which overlaps with ION 28453 (a 4-10-4 MOE gapmer) was included in these assays for comparison. ION 28453 has been previously disclosed in U.S. Pat. No. 6,159,697). After a treatment period of approximately 24 hours, RNA was isolated from the cells and SMAD7 mRNA levels were measured by quantitative real-time PCR. Primer probe set RTS5062 (forward sequence […], designated herein as SEQ ID NO: 11; reverse sequence […], designated herein as SEQ ID NO: 12; probe sequence […], designated herein as SEQ ID NO: 13) was used to measure human SMAD7 mRNA levels. SMAD7 mRNA levels were adjusted according to total RNA content, as measured by RIBOGREEN®. Results are presented as percent inhibition of SMAD7 mRNA expression, relative to untreated control cells.
The newly designed chimeric antisense oligonucleotides in the Tables below were designed as 5-10-5 MOE gapmers. The gapmers are 20 nucleosides in length, wherein the central gap segment comprises of ten 2′-deoxynucleosides and is flanked by wing segments on the 5′ direction and the 3′ direction comprising five nucleosides each. Each nucleoside in the 5′ wing segment and each nucleoside in the 3′ wing segment has a 2′-MOE modification. The internucleoside linkages throughout each gapmer are phosphorothioate (P═S) linkages. All cytosine residues throughout each gapmer are 5-methylcytosines.
“Start site” indicates the 5′-most nucleoside to which the gapmer is targeted in the human gene sequence. “Stop site” indicates the 3′-most nucleoside to which the gapmer is targeted human gene sequence.
Cultured Hep3B cells at a density of 20,000 cells per well were transfected using electroporation with 5,000 nM antisense oligonucleotide.
Cultured Hep3B cells at a density of 20,000 cells per well were transfected using electroporation with 15,000 nM antisense oligonucleotide. The antisense oligonucleotides were tested in a series of experiments that had similar culture conditions as described below.
Some of the oligonucleotides presented were complementary to SMAD7 mRNA sequences RefSeqNo. NM_001190821.1 (designated herein as SEQ ID NO: 3) or RefSeqNo. NM_001190822.1 (designated herein as SEQ ID NO: 4), and are presented in a separate table shown below.

[2] = tested on: human SMAD7 mRNA; test: Antisense inhibition of human SMAD7 mRNA expression in Hep3B cells by 3-10-3 cEt gapmers, 10,000 nM, electroporation (Example 2); settings: approximately 24 hours, primer probe set RTS5062, relative to untreated control cells
How it was run: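 qRT-PCR (RTS5062) of SMAD7 mRNA, normalised to RIBOGREEN total RNA, gave percent inhibition relative to untreated controls. Hep3B cells at 20,000 per well received 10,000 nM oligonucleotide by electroporation, with ~24 h treatment.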

[3] = tested on: human SMAD7 mRNA; test: Dose-dependent inhibition of human SMAD7 mRNA expression in Hep3B cells (Example 3, Study 1 and 2); settings: electroporation; for % inhibition of SMAD7 mRNA expression: approximately 16 hours, Study 2
How it was run: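 Hep3B cells, 20,000 per well, electroporated with antisense oligonucleotide at 0.31, 1.25, 5.00 or 20.00 μM (first series) or 0.74, 2.22, 6.67 or 20.00 μM (second series). After ~16 h, SMAD7 mRNA measured by RT-qPCR (RTS5062), normalised to RIBOGREEN total RNA. Percent inhibition vs untreated cells; IC50 derived.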

[4] = electroporation, 15,000 nM, approximately 24 hours, relative to untreated control cells, gapmers targeting SEQ ID NO: 1 and 2
[5] = electroporation, 15,000 nM antisense oligonucleotide (Study 2), 5-10-5 MOE gapmers targeting SEQ ID NO: 1 and 2
[6] = electroporation with 15,000 nM antisense oligonucleotide (Study 2), 5-10-5 MOE gapmers targeting SEQ ID NO: 1 and 2
[7] = Study 2, electroporation with 15,000 nM antisense oligonucleotide, 5-10-5 MOE gapmers targeting SEQ ID NO: 1 and 2

771368 (antisense e[5mC]*eG*eG*e[5mC]*e[5mC]*dT*dT*dG*dA*dT*dG*d[5mC]*dT*dG*dA*eT*eT*eA*eT*eT) [compound 771368]
% inhibition of SMAD7 mRNA expression [1, 4]: 27%

771914 (antisense eA*eT*eT*eT*eA*dG*dG*dA*dA*d[5mC]*dA*dA*dG*dG*dG*e[5mC]*eA*eA*eG*e[5mC]) [compound 771914]
% inhibition of SMAD7 mRNA expression [1, 5]: 34%

771688 (antisense e[5mC]*eG*eT*eT*eT*dA*dA*dT*dG*dG*dA*dA*d[5mC]*dA*dT*eA*eA*eA*e[5mC]*eT) [compound 771688]
% Inhibition of SMAD7 mRNA [1, 6]: 13%
% inhibition of SMAD7 mRNA expression [1, 6]: 0%

771545 (antisense e[5mC]*e[5mC]*eA*eA*eA*dA*dA*dA*dA*d[5mC]*d[5mC]*d[5mC]*d[5mC]*d[5mC]*dA*eA*e[5mC]*eA*eA*eT) [compound 771545]
% inhibition of SMAD7 mRNA expression [1, 5]: 21%

771848 (antisense e[5mC]*e[5mC]*eA*e[5mC]*eA*d[5mC]*dA*dA*d[5mC]*d[5mC]*dA*dA*dA*dG*d[5mC]*eA*eG*eA*eA*eG) [compound 771848]
% Inhibition of SMAD7 mRNA [1, 6]: 47%
% inhibition of SMAD7 mRNA expression [1, 5]: 36%

771381 (antisense eA*eA*eA*eA*e[5mC]*dA*d[5mC]*d[5mC]*dA*dA*dG*dA*dT*d[5mC]*d[5mC]*eA*eT*e[5mC]*eT*eT) [compound 771381]
% inhibition of SMAD7 mRNA expression [1, 5]: 0%

771925 (antisense eG*eG*e[5mC]*e[5mC]*eT*d[5mC]*dT*d[5mC]*dG*d[5mC]*dT*dG*dA*dT*dA*eG*eT*eT*eA*eA) [compound 771925]
% inhibition of SMAD7 mRNA expression [1, 4]: 10%

771692 (antisense e[5mC]*e[5mC]*e[5mC]*eA*eG*dG*dA*dG*dG*dG*dT*dA*dT*dG*d[5mC]*eA*e[5mC]*eA*e[5mC]*eT) [compound 771692]
% Inhibition [1, 7]: 18%

771346 (antisense e[5mC]*eG*eT*eG*eA*dT*dT*d[5mC]*dT*d[5mC]*d[5mC]*dG*dT*dA*dT*eT*eT*eA*e[5mC]*eT) [compound 771346]
% Inhibition [1, 7]: 22%

771564 (antisense eG*e[5mC]*e[5mC]*eG*e[5mC]*dA*d[5mC]*dA*d[5mC]*dT*d[5mC]*dA*d[5mC]*dA*d[5mC]*eT*e[5mC]*eA*e[5mC]*eA) [compound 771564]
% inhibition of SMAD7 mRNA expression [1, 7]: 28%

771424 (e[5mC]*e[5mC]*e[5mC]*eA*eG*dG*d[5mC]*dA*dG*d[5mC]*dA*dT*d[5mC]*d[5mC]*dA*eG*e[5mC]*e[5mC]*e[5mC]*eT; antisense) [compound 771424]
% Inhibition [1, 7]: 36%

771633 (antisense eG*eA*e[5mC]*e[5mC]*eA*dA*dA*dT*d[5mC]*d[5mC]*dT*dT*d[5mC]*dT*dT*eG*eG*eA*eG*eG) [compound 771633]
% inhibition of SMAD7 mRNA expression [1, 6]: 40%

771410 (eG*e[5mC]*eT*e[5mC]*eG*d[5mC]*d[5mC]*dT*d[5mC]*d[5mC]*dT*d[5mC]*d[5mC]*dT*d[5mC]*e[5mC]*eA*e[5mC]*e[5mC]*eT; antisense) [compound 771410]
% inhibition of SMAD7 mRNA expression [1, 5]: 37%

771508 (antisense e[5mC]*e[5mC]*eT*eG*e[5mC]*dT*d[5mC]*dA*dG*d[5mC]*dT*d[5mC]*dA*d[5mC]*dG*e[5mC]*eT*e[5mC]*eT*eG) [compound 771508]
% inhibition of SMAD7 mRNA expression [1, 7]: 8%

771858 (antisense e[5mC]*eT*eG*e[5mC]*e[5mC]*dA*dA*d[5mC]*dG*dG*d[5mC]*dA*d[5mC]*dA*dG*eT*e[5mC]*eA*eT*eA) [compound 771858]
% inhibition of SMAD7 mRNA expression [1, 5]: 31%

771813 (antisense eT*e[5mC]*eT*eT*eG*dT*d[5mC]*dT*dG*dG*d[5mC]*d[5mC]*dG*dG*d[5mC]*eA*eG*eA*eG*e[5mC]) [compound 771813]
% inhibition of SMAD7 mRNA expression [1, 4]: 38%

771385 (antisense e[5mC]*eA*eG*eT*e[5mC]*dT*dG*d[5mC]*dT*dG*dT*dG*dG*dA*dT*eT*eT*eG*eA*eA) [compound 771385]
% Inhibition [1, 7]: 25%

771840 (antisense eA*eG*eA*eT*eG*d[5mC]*dT*dT*d[5mC]*dT*dA*dG*dG*dT*dG*eA*eA*e[5mC]*e[5mC]*eA) [compound 771840]
% Inhibition of SMAD7 mRNA [1, 6]: 30%
% inhibition of SMAD7 mRNA expression [1, 5]: 16%

771824 (antisense eT*eT*e[5mC]*eT*eA*d[5mC]*dT*dA*dG*dA*dA*dA*dA*dA*dA*eA*eT*eT*eA*eG) [compound 771824]
% Inhibition of SMAD7 mRNA [1, 6]: 3%
% inhibition of SMAD7 mRNA expression [1, 5]: 0%

771861 (antisense eA*eG*eA*eA*eA*dA*d[5mC]*dA*dG*d[5mC]*d[5mC]*d[5mC]*d[5mC]*d[5mC]*d[5mC]*e[5mC]*eA*eG*e[5mC]*eA) [compound 771861]
% inhibition of SMAD7 mRNA expression [1, 4]: 13%

771724 (antisense e[5mC]*e[5mC]*eT*eT*e[5mC]*dT*d[5mC]*d[5mC]*d[5mC]*dA*dG*dA*dA*d[5mC]*d[5mC]*eT*eT*eG*eG*e[5mC]) [compound 771724]
% Inhibition [1, 7]: 27%

771928 (antisense e[5mC]*e[5mC]*e[5mC]*e[5mC]*eA*dT*dT*dG*d[5mC]*d[5mC]*dA*d[5mC]*dT*dA*d[5mC]*eA*eG*eA*eG*eA) [compound 771928]
% Inhibition of SMAD7 mRNA [1, 6]: 27%
% inhibition of SMAD7 mRNA expression [1, 5]: 0%

771823 (antisense e[5mC]*eT*eT*e[5mC]*e[5mC]*d[5mC]*dA*dT*dG*dT*dG*dA*d[5mC]*d[5mC]*dT*e[5mC]*eA*eG*eG*eG) [compound 771823]
% Inhibition [1, 7]: 49%

771673 (antisense eA*eG*eG*eT*eT*dT*dT*dT*dT*dT*dT*d[5mC]*dA*dG*dG*eA*eG*eT*e[5mC]*e[5mC]) [compound 771673]
% inhibition of SMAD7 mRNA expression [1, 6]: 44%

771863 (antisense e[5mC]*e[5mC]*eA*eG*e[5mC]*d[5mC]*d[5mC]*d[5mC]*d[5mC]*dT*d[5mC]*d[5mC]*dT*dG*dG*eG*eA*e[5mC]*eT*eA) [compound 771863]
% Inhibition [1, 7]: 9%

771533 (antisense e[5mC]*eA*eA*eA*e[5mC]*dG*dA*dG*dG*dA*d[5mC]*dG*dA*dG*dA*eA*eG*eA*eA*eG) [compound 771533]
% inhibition of SMAD7 mRNA expression [1, 4]: 2%

771814 (antisense eT*e[5mC]*e[5mC]*e[5mC]*eT*dT*dT*dG*d[5mC]*dT*dG*dG*d[5mC]*d[5mC]*d[5mC]*eA*eG*eT*eT*e[5mC]) [compound 771814]
% Inhibition [1, 7]: 39%

771486 (antisense e[5mC]*eG*eG*eT*eA*dA*dA*dG*d[5mC]*d[5mC]*d[5mC]*dG*dT*d[5mC]*d[5mC]*eA*e[5mC]*eG*eG*e[5mC]) [compound 771486]
% inhibition of SMAD7 mRNA expression [1, 4]: 52%

771859 (antisense e[5mC]*e[5mC]*eA*eG*eA*dA*dA*dA*dT*dG*d[5mC]*dA*dG*dA*d[5mC]*eA*eG*e[5mC]*eT*eA) [compound 771859]
% Inhibition [1, 7]: 42%
% inhibition of SMAD7 mRNA expression ([1]; electroporation, 5,000 nM, approximately 24 hours, relative to untreated control cells, gapmers targeting SEQ ID NO: 1 and 2): 43%

771625 (antisense eG*e[5mC]*eT*eT*eA*dA*d[5mC]*dA*d[5mC]*dA*d[5mC]*dA*dG*dG*dA*eT*eG*eG*eG*eA) [compound 771625]
% inhibition of SMAD7 mRNA expression [1, 6]: 48%

798764 (kA*k[5mC]*kT*dT*dT*dG*d[5mC]*dA*d[5mC]*dA*dG*d[5mC]*dA*kG*kG*kA; antisense) [compound 798764]
% inhibition of SMAD7 mRNA expression ([2]; Hep3B cells, electroporation with 10,000 nM antisense oligonucleotide): 69%
% Inhibition ([2]; SMAD7 mRNA, Hep3B cells, 10,000 nM antisense oligonucleotide, electroporation): 75%
% inhibition of SMAD7 mRNA expression ([3]; 6670.0 nM): 57% and 72% and 54%
% inhibition of SMAD7 mRNA expression ([3]; 20000.0 nM): 93% and 87% and 65% and 83%
IC50 ([3]; Study 2 (740-20000 nM)): 1 µM
